Test [1] deals with [d-(TTGGGGT)]4 (DNA, G4) TTGGGGT. As to the kind of experiment: 1H NMR titration (T7H6 and T7CH3 shifts). As to conditions: 100 mM KCl, 10 mM K2HPO4; 1 mM EDTA, pH 7.0, 25 °C, 90% H2O/10% D2O; site 1 of 2 (G6-T7); apparent.
Test [2] relates to [d-(TTGGGGT)]4 immobilized (SPR) (DNA, G4) TTGGGGT. The experiment in a line: SPR steady state. The settings on record: 100 mM KCl; 10 mM HEPES, 3 mM EDTA, 0.005% P20, pH 7.4, 25 °C; dominant mode.
Test [3] has as its system [d-(TTGGGGT)]4 (DNA, G4) TTGGGGT. The experiment in a line: DSC. As to conditions: 100 mM KCl, 10 mM K2HPO4; 1 mM EDTA, pH 7.0; 50 µM quadruplex, D/N = 4.0 (200 µM daunomycin); third transition.

Take `COc1cccc2c1C(=O)c1c(O)c3c(c(O)c1C2=O)C[C@@](O)(C(C)=O)C[C@@H]3O[C@H]1C[C@H](N)[C@H](O)[C@H](C)O1`: the Kb in test [1] is given as ~ 1.8–2.3 × 10^4 M^−1; in test [2], ~ 4.1 × 10^3 M^−1. Moreover, the ΔTm3 in test [3] was 14.4 ± 1.1 °C.
